Laboratory results reported in the supplement of paper PMC10307832.

What was measured:
Experiment in all cases: relative viability (nuclei count vs DMSO), 5 days (fraction); higher = more cells survive
SGI-1776 + Tozasertib = compound: CN1CCC(CNc2ccc3ncc(-c4cccc(OC(F)(F)F)c4)n3n2)CC1 [SGI-1776] + Cc1cc(Nc2cc(N3CCN(C)CC3)nc(Sc3ccc(NC(=O)C4CC4)cc3)n2)n[nH]1 [Tozasertib] (partner 0.1 µM)
Summary of the method: (§1)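 After 5 days of treatment, lung cancer cells in 1536-well plates were fixed and stained in a single step (final 0.05% Triton X-100, 1% formaldehyde, 1 ug/ml Hoechst) and their nuclei counted on 4× images. Treatment had been applied by pin tool the day after seeding as one drug alone or as a fixed anchor-drug dose with five library-drug doses (not always all listed) in √10 steps. Relative viability is the nuclei count of treated wells divided by that of vehicle wells, and values are medians of duplicate plates.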

Entinostat + Palbociclib = compound: Nc1ccccc1NC(=O)c1ccc(CNC(=O)OCc2cccnc2)cc1 [Entinostat] + CC(=O)c1c(C)c2cnc(Nc3ccc(N4CCNCC4)cn3)nc2n(C2CCCC2)c1=O [Palbociclib] (partner 0.5 µM)
Summary of the method: as §1

Entinostat + Alpelisib = compound: Nc1ccccc1NC(=O)c1ccc(CNC(=O)OCc2cccnc2)cc1 [Entinostat] + Cc1nc(NC(=O)N2CCC[C@H]2C(N)=O)sc1-c1ccnc(C(C)(C)C(F)(F)F)c1 [Alpelisib] (partner 2 µM)
Summary of the method: as §1

Entinostat + Decitabine = compound: Nc1ccccc1NC(=O)c1ccc(CNC(=O)OCc2cccnc2)cc1 [Entinostat] + Nc1ncn([C@H]2C[C@H](O)[C@@H](CO)O2)c(=O)n1 [Decitabine] (partner 2 µM)
Summary of the method: as §1

Cell Line	relative viability (SGI-1776 + Tozasertib; first compound 0.08 µM)	relative viability (SGI-1776 + Tozasertib; first compound 0.8 µM)	relative viability (SGI-1776 + Tozasertib; first compound 2.53 µM)	relative viability (SGI-1776 + Tozasertib; first compound 8 µM)	relative viability (Entinostat + Palbociclib; first compound 0.02 µM)	relative viability (Entinostat + Palbociclib; first compound 0.06325 µM)	relative viability (Entinostat + Palbociclib; first compound 0.2 µM)	relative viability (Entinostat + Palbociclib; first compound 0.6325 µM)	relative viability (Entinostat + Palbociclib; first compound 2 µM)	relative viability (Entinostat + Alpelisib; first compound 0.02 µM)	relative viability (Entinostat + Alpelisib; first compound 0.06325 µM)	relative viability (Entinostat + Alpelisib; first compound 0.2 µM)	relative viability (Entinostat + Alpelisib; first compound 0.6325 µM)	relative viability (Entinostat + Alpelisib; first compound 2 µM)	relative viability (Entinostat + Decitabine; first compound 0.02 µM)	relative viability (Entinostat + Decitabine; first compound 0.06325 µM)	relative viability (Entinostat + Decitabine; first compound 0.2 µM)	relative viability (Entinostat + Decitabine; first compound 0.6325 µM)	relative viability (Entinostat + Decitabine; first compound 2 µM)
LCLC-97TM1	0.211	0.188	0.163	0.185	0.21	0.213	0.236	0.277	0.18	0.262	0.224	0.245	0.225	0.156	0.23	0.213	0.314	0.163	0.16
NCI-H2347	0.491	0.579	0.418	0.279	0.48	0.387	0.361	0.339	0.261	1.09	0.99	0.865	0.391	0.343	0.611	0.585	0.494	0.471	0.363
NCI-H1915	0.456	0.418	0.33	0.198	0.51	0.494	0.43	0.383	0.208	1.07	1.08	1.05	0.816	0.402	0.276	0.246	0.258	0.229	0.197
NCI-H647	0.389	0.198	0.175	0.175	0.318	0.343	0.337	0.0924	0.0625	1.09	1.28	1.06	0.419	0.11	0.382	0.256	0.258	0.166	0.166
NCI-H520	0.436	0.442	0.427	0.385	0.195	0.237	0.32	0.355	0.236	0.836	0.848	0.963	0.764	0.451	0.571	0.464	0.482	0.385	0.35
HCC-366	0.115	0.0741	0.0957	0.0418	0.344	0.348	0.133	0.111	0.0439	0.537	0.521	0.43	0.327	0.0475	0.312	0.315	0.168	0.155	0.0591
NCI-H2087	0.257	0.198	0.186	0.192	0.252	0.209	0.174	0.0887	0.0971	0.983	0.954	0.806	0.64	0.54	0.283	0.302	0.186	0.133	0.106
PC-3 [JPC-3]	0.911	0.9	0.863	0.544	0.529	0.47	0.486	0.442	0.378	0.98	0.929	0.829	0.667	0.463	0.778	0.852	0.731	0.573	0.55
